Common to all, as to assay type: binding
For assay [1], the system named is recombinant human Bcl-2-G101V protein. Description: Bcl-2-G101V TR-FRET Assay. Particulars: for Ratio of Bcl-2 G101V/WT: ratio of biochemical IC50 Bcl-2 G101V / Bcl-2 WT. The procedure: (§1) Biological Example: Bcl-2-G101V TR-FRET Assay
(§2) […]. The TR-FRET signals (ex337 nm, em490 nm/520 nm) were read on BMG PHERAstar FSX instrument. The inhibition percentage of Bcl-2-G101V interaction with its ligand in presence of increasing concentrations of compounds was calculated based on the ratio of fluorescence at 490 nm to that at 520 nm. The IC50 for each compound was derived from fitting the data to the four-parameter logistic equation by Graphpad Prism software or Dotmatics.

The target of assay [2] is recombinant human Bcl-2-G101V protein (Homo sapiens (Human), UniProt P10415, G101V). Kind of assay: Bcl-2-G101V TR-FRET Assay. The conditions noted are these: Bcl-2 G101V mutant, TR-FRET; read-out: Biochemical assay (IC50, nM) Bcl-2 G101V. The procedure: as §1, §2
On the technique in general: In TR-FRET formats the signal depends on donor and acceptor labels being close together.

For assay [3], the target named is Recombinant human Bcl-2 protein (Homo sapiens (Human), UniProt P10415). Description: Bcl-2 TR-FRET Assay. As to the method: Biological Example: Bcl-2 TR-FRET Assay
Compounds disclosed herein were tested for blocking of Bcl-2 protein with its ligand in an assay based on Time-Resolved Fluorescence Resonance Energy Transfer (TR-FRET) methodology. Recombinant human 0.05 nM Bcl-2 protein was pre-incubated with a serial dilution of compounds disclosed herein (top final concentration is 1 uM or 0.1 uM or 0.02 uM or 0.01 uM, 10 points) at room temperature for 0.5 hour in an assay buffer containing 20 mM potassium phosphate buffer, pH 7.5, 50 mM NaCl. 1 mM EDTA, 0.05% Tween-20, 0.01% BSA. Then the FITC labeled Bak peptide Ac-GQVGRQLAIIGDK(FITC)INR-amide (0.5 nM) and MAb Anti 6His Tb cryptate Gold were added to plate and further incubated at room temperature for 1 hour. The TR-FRET signals (337 nm-520 nm-490 nm) were read on BMG PHERAstar FSX instrument. The inhibition percentage of Bcl-2 interaction with its ligand in presence of increasing concentrations of compounds was calculated based on the TR-FRET signals. The IC50 for each compound was derived from fitting the data to the four-parameter logistic equation by Graphpad Prism software or Dotmatics.

Assay [4] concerns the target recombinant human Bcl-2 D103Y protein (Homo sapiens (Human), UniProt P10415, D103Y). Description: Bcl-2-D103Y Biochemical Assay (TR-FRET). Particulars: for IC50: TR-FRET, FITC labeled Bak peptide; for Ratio of Bcl-2 D103Y/Bcl-2 WT: ratio of IC50. The procedure: Biological Example: Bcl-2-D103Y Biochemical Assay
[…]. The TR-FRET signals (ex337 nm, em490 nm/520 nm) were read on BMG PHERAstar FSX instrument. The inhibition percentage of Bcl-2 D103Y interaction with its ligand in presence of increasing concentrations of compounds was calculated based on the ratio of fluorescence at 490 nm to that at 520 nm. The IC50 for each compound was derived from fitting the data to the four-parameter logistic equation by Dotmatics.

Setting [5] is: wild type Bcl-2, unit inferred, read-out: Bcl-2 WT.

Like-named read-outs stand apart in the source and are kept apart here.

With `CC(C)c1ccccc1[C@H]1CN(C(C)C)CCN1C1CC2(CCN(c3ccc(C(=O)NS(=O)(=O)c4ccc(NC[C@H]5CC[C@](C)(O)CC5)c([N+](=O)[O-])c4)c(Oc4cnc5[nH]ccc5c4)c3)CC2)C1` (single isomer, unassigned) [Example 3b, 2-((1H-pyrrolo[2,3-b]pyridin-5-yl)oxy)-N-((4-((((1r,4r)-4-hydroxy-4-methylcyclohexyl)methyl)amino)-3-nitrophenyl)sulfonyl)-4-(2-((R or S)-4-isopropyl-2-(2-isopropylphenyl)piperazin-1-yl)-7-azaspiro[3.5]nonan-7-yl)benzamide], the “Ratio of Bcl-2 G101V/WT” value in assay [1] came to 16.9. Further, the IC50 is 0.14 nM in assay [2] and 0.0083 nM in assay [3] (Bcl-2 wild type, TR-FRET, read-out: Biochemical assay (IC50, nM) Bcl-2 WT).

With `CC(C)c1ccccc1C1CN(C2COC2)CCN1C1CC2(CCN(c3ccc(C(=O)NS(=O)(=O)c4ccc(NC[C@H]5CC[C@](C)(O)CC5)c([N+](=O)[O-])c4)c(Oc4cnc5[nH]ccc5c4)c3)CC2)C1` (single isomer, unassigned) [Example 6a, 2-((1H-pyrrolo[2,3-b]pyridin-5-yl)oxy)-N-((4-((((1r,4r)-4-hydroxy-4-methylcyclohexyl)methyl)amino)-3-nitrophenyl)sulfonyl)-4-(2-((S or R)-2-(2-isopropylphenyl)-4-(oxetan-3-yl)piperazin-1-yl)-7-azaspiro[3.5]nonan-7-yl)benzamide], the values for the IC50 in assay [3] (setting [5]) and in assay [4] were 0.0078 nM and 0.11 nM, respectively.

Consider `CC(C)c1ccccc1[C@H]1CN(C2COC2)CCN1C1CC2(CCN(c3ccc(C(=O)NS(=O)(=O)c4ccc(NC[C@H]5CC[C@](C)(O)CC5)c([N+](=O)[O-])c4)c(Oc4cnc5[nH]ccc5c4)c3)CC2)C1` (single isomer, unassigned) [Example 6a, 2-((1H-pyrrolo[2,3-b]pyridin-5-yl)oxy)-N-((4-((((1r,4r)-4-hydroxy-4-methylcyclohexyl)methyl)amino)-3-nitrophenyl)sulfonyl)-4-(2-((S or R)-2-(2-isopropylphenyl)-4-(oxetan-3-yl)piperazin-1-yl)-7-azaspiro[3.5]nonan-7-yl)benzamide], for which the “Ratio of Bcl-2 D103Y/Bcl-2 WT” value in assay [4] worked out at 13.

For `CC(C)c1ccccc1[C@@H]1CN(Cc2cnn(C)c2)CCN1C1CC2(CCN(c3ccc(C(=O)NS(=O)(=O)c4ccc(NC[C@H]5CC[C@](C)(O)CC5)c([N+](=O)[O-])c4)c(Oc4cnc5[nH]ccc5c4)c3)CC2)C1` (single isomer, unassigned) [Example 22a, 2-((1H-pyrrolo[2,3-b]pyridin-5-yl)oxy)-N-((4-((((1r,4r)-4-hydroxy-4-methylcyclohexyl)methyl)amino)-3-nitrophenyl)sulfonyl)-4-(2-((R or S)-2-(2-isopropylphenyl)-4-((1-methyl-1H-pyrazol-4-yl)methyl)piperazin-1-yl)-7-azaspiro [3.5]nonan-7-yl)benzamide], the “Ratio of Bcl-2 G101V/WT” value in assay [1] was 8.1. Also, the “ratio of Bcl-2 D103Y/Bcl-2 wt, compared with F91b in WO2019210828” value in assay [4] (comparison in words) is listed as “significantly lower”. The “Ratio of Bcl-2 D103Y/Bcl-2 WT” value in assay [4] came out at 5.2.

Consider `CC(C)c1ccccc1C1CN(C(C)C)CCN1C1CC2(CCN(c3ccc(C(=O)NS(=O)(=O)c4ccc(NC[C@H]5CC[C@](C)(O)CC5)c([N+](=O)[O-])c4)c(Oc4cnc5[nH]ccc5c4)c3)CC2)C1` (stereo partly shown) [Example 3, 2-((1H-pyrrolo[2,3-b]pyridin-5-yl)oxy)-N-((4-((((1r,4r)-4-hydroxy-4-methylcyclohexyl)methyl)amino)-3-nitrophenyl)sulfonyl)-4-(2-(4-isopropyl-2-(2-isopropylphenyl)piperazin-1-yl)-7-azaspiro[3.5]nonan-7-yl)benzamide], for which the IC50 in assay [3] (setting [5]) amounted to 0.019 nM. For the same compound, in assay [4], the IC50 amounted to 0.11 nM and the “Ratio of Bcl-2 D103Y/Bcl-2 WT” value worked out at 11.

Consider `COc1ccc(C(=O)N2CCN(C3CC4(CCN(c5ccc(C(=O)NS(=O)(=O)c6ccc(NC[C@H]7CC[C@](C)(O)CC7)c([N+](=O)[O-])c6)c(Oc6cnc7[nH]ccc7c6)c5)CC4)C3)C(c3ccccc3C(C)C)C2)cc1` (stereo partly shown) [Example 61, 2-((1H-pyrrolo[2,3-b]pyridin-5-yl)oxy)-N-((4-((((1r,4r)-4-hydroxy-4-methylcyclohexyl)methyl)amino)-3-nitrophenyl)sulfonyl)-4-(2-(2-(2-isopropylphenyl)-4-(4-methoxybenzoyl)piperazin-1-yl)-7-azaspiro[3.5]nonan-7-yl) benzamide], for which the “ratio of IC50 of Bcl-2 G101V/Bcl-2 wt, compared with Example F132b in WO2019210828 and ABT-199 (venetoclax)” value in assay [1] (comparison in words) was “much lower”.

Regarding `CC(C)c1ccccc1C1CN(Cc2ccc3occc3c2)CCN1C1CC2(CCN(c3ccc(C(=O)NS(=O)(=O)c4ccc(NC[C@H]5CC[C@](C)(O)CC5)c([N+](=O)[O-])c4)c(Oc4cnc5[nH]ccc5c4)c3)CC2)C1` (stereo partly shown) [Example 96, 2-((1H-pyrrolo[2,3-b]pyridin-5-yl)oxy)-4-(2-(4-(benzofuran-5-ylmethyl)-2-(2-isopropylphenyl)piperazin-1-yl)-7-azaspiro[3.5]nonan-7-yl)-N-((4-((((1r,4r)-4-hydroxy-4-methylcyclohexyl)methyl)amino)-3-nitrophenyl)sulfonyl)benzamide], in assay [3] (setting [5]), the IC50 is 0.041 nM. Further, in assay [4], the IC50 is 0.23 nM and the “Ratio of Bcl-2 D103Y/Bcl-2 WT” value came to 5.6.

On to `COc1ccc(N(C)C2CCN(C3CC4(CCN(c5ccc(C(=O)NS(=O)(=O)c6ccc(NC[C@H]7CC[C@](C)(O)CC7)c([N+](=O)[O-])c6)c(Oc6cnc7[nH]ccc7c6)c5)CC4)C3)C(c3ccccc3C(C)C)C2)cc1` (stereo partly shown) [Example 150], for which the IC50 in assay [3] (setting [5]) came to 0.13 nM. Further, in assay [4], the IC50 came out at 0.53 nM and the “Ratio of Bcl-2 D103Y/Bcl-2 WT” value was found to be 4.1.

Regarding `COc1ccc(CN2CCN(C3CC4(C3)CN(c3ccc(C(=O)NS(=O)(=O)c5ccc(NC[C@H]6CC[C@](C)(O)CC6)c([N+](=O)[O-])c5)c(Oc5cnc6[nH]cc(Cl)c6c5)c3)C4)[C@H](c3ccccc3C(C)C)C2)cc1` [Example 207, 2-((3-chloro-1H-pyrrolo[2,3-b]pyridin-5-yl)oxy)-N-((4-((((1r,4r)-4-hydroxy-4-methylcyclohexyl)methyl)amino)-3-nitrophenyl)sulfonyl)-4-(6-((R)-2-(2-isopropylphenyl)-4-(4-methoxybenzyl)piperazin-1-yl)-2-azaspiro[3.3]heptan-2-yl) benzamide], the IC50 in assay [3] (setting [5]) is 0.2 nM. In assay [4], the IC50 stood at 0.22 nM and the “Ratio of Bcl-2 D103Y/Bcl-2 WT” value is listed as 1.1.

Regarding `COc1ccc(CN2CCN(C3CC4(CCN(c5ccc(C(=O)NS(=O)(=O)c6ccc(NCC7CCC(CO)O7)c([N+](=O)[O-])c6)c(Oc6cnc7[nH]ccc7c6)c5)CC4)C3)[C@H](c3ccccc3C(C)C)C2)cc1` (stereo partly drawn) [Example 220, 2-((1H-pyrrolo[2,3-b]pyridin-5-yl)oxy)-N-((4-(((5-(hydroxymethyl)tetrahydrofuran-2-yl)methyl)amino)-3-nitrophenyl)sulfonyl)-4-(2-((R)-2-(2-isopropylphenyl)-4-(4-methoxybenzyl)piperazin-1-yl)-7-azaspiro[3.5]nonan-7-yl) benzamide], the values for the IC50 in assay [3] (setting [5]) and in assay [4] were 0.044 nM and 0.077 nM, respectively. The “Ratio of Bcl-2 D103Y/Bcl-2 WT” value in assay [4] was found to be 1.8.

The record behind these values is patent US20240376097A1, “BCL-2 Inhibitor” (BeiGene Ltd., priority 2020, published 2024).
